Measurements reported in PMC7613639, “Broad-spectrum chemicals block ROS detoxification to prevent plant fungal invasion” (Current biology : CB, 2022).

Target: BcRtt109-GST (Botrytis cinerea, UniProt A0A384J919)
Experiment: in vitro acetylation of BcTol1-His6, immunoblot with anti-K122ac
Type: biochemical
Details: 0.2 mM acetyl-CoA; acceptor BcTol1-His6; 50 mM Tris-HCl pH 8.0, 37 °C, 1 h

Sequence of BcRtt109-GST (A0A384J919 entry or part of it): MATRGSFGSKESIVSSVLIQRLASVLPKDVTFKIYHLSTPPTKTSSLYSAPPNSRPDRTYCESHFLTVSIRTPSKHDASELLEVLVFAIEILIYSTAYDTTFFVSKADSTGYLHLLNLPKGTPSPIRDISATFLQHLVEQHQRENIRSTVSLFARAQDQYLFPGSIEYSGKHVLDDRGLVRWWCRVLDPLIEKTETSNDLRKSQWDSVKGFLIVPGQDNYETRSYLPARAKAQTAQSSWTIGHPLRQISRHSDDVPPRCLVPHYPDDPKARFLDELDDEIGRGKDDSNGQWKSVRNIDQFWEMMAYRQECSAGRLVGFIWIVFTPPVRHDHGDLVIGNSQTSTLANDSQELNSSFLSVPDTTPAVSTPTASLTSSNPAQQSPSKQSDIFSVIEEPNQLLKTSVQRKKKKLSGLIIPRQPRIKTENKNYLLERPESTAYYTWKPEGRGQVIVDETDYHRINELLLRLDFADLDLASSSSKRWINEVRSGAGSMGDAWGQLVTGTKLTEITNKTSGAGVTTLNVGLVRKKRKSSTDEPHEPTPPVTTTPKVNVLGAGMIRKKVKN

In the case of `CC(=O)SCCNC(=O)CCNC(=O)[C@H](O)C(C)(C)COP(=O)(O)OP(=O)(O)OC[C@H]1O[C@@H](n2cnc3c(N)ncnc32)[C@H](O)[C@@H]1OP(=O)(O)O` [acetyl-CoA], the “in vitro acetylation of BcTol1-His6, immunoblot with anti-K122ac” value is reported as “purified BcRtt109-GST, but not GST itself, acetylates WT BcTol1 effectively in vitro”.
